Results on four compounds are retold here after US20190263796A1, “LIM KINASE INHIBITORS, PHARMACEUTICAL COMPOSITION AND METHOD OF USE IN LIMK-MEDIATED DISEASES” (CELLIPSE, priority 2016, published 2019).

For one experiment, the target named is B-Raf(h) (Homo sapiens, UniProt P15056). The experiment in a line: B-Raf kinase assay (Eurofins Panlabs, radiometric). Format: biochemical. More on the design: purchased Eurofins Panlabs Inc. (contract assay service). Here is the method: IC50 B-Raf is then determined.
Sequence of B-Raf(h) (P15056 whole entry): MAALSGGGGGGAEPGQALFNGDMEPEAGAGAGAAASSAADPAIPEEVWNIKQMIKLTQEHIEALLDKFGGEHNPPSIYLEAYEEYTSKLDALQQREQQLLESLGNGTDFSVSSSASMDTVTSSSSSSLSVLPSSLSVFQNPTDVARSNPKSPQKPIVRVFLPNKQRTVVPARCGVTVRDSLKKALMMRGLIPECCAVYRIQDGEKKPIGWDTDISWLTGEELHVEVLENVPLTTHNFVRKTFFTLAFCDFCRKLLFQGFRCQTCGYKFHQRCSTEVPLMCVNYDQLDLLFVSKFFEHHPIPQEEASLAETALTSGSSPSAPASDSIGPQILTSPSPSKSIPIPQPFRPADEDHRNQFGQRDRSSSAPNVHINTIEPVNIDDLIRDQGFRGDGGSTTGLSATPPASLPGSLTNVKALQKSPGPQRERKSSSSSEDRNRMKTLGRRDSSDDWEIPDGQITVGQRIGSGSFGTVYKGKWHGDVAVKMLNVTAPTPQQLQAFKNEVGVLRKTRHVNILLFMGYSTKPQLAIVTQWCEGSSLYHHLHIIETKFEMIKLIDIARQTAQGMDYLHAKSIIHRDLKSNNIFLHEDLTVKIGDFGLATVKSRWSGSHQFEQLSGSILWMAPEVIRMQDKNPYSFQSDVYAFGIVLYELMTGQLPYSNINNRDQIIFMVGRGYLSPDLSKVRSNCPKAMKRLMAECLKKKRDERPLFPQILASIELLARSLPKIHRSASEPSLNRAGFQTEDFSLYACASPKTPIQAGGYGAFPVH
Selectivity ratios are calculated by dividing the IC50 B-Raf (nM) by the IC50 LIMK1 (nM).

For experiment [1], the system named is P-MEK/Total MEK. The experiment in a line: Western blot MEK1 phosphorylation, MV4-11. The conditions noted are these: for IC50: read-out: IC50 P-MEK/Total MEK; for Selectivity ratio: IC50 P-MEK/Total MEK divided by IC50 Phospho-Ser3-Cofilin/Total Cofilin. Format: cell-based. Here is the method: (§1) MV4-11 cell line was originally purchased from the American Type Culture Collection (ATCC) or from the Leibniz-Institut Deutsche Sammlung von Mikroorganismen und Zellkulturen GmbH (DSMZ). MV4-11 cells are cultured in RPMI 1640 20% (v/v) FBS supplemented with 100 U/mL^−1 penicillin, 0.1 mg·mL^−1 streptomycin (PAN Biotech P06-07100) and 2 mM Glutamine (Sigma-Aldrich 59202C). Cells were maintained at 37° C. with 5% CO2.
(§2) In a 6 wells plate (Falcon 353046), 2·10^6 cells in 1.5 mL medium are treated for 2 h with compounds. Cells are then collected and cell lysis is performed at 4° C. using RIPA buffer supplemented with protease inhibitors cocktail (Sigma-Aldrich P8340) and phosphatase inhibitors cocktail (Sigma-Aldrich P5726). Following centrifugation 30 min 15000 g 4° C., supernatants are mixed with Laemmli buffer and denaturation is performed by heating 5 min 95° C. 10 μL of samples are subjected to electrophoresis on 15% SDS-PAGE. After electro-transfer (Mini Transblot, Bio-Rad), the PVDF membrane (Merck-Millipore Immobilon P IPVH00010) is blocked with Tris Buffered Saline, pH 7.4 (TBS) with 0.1% Tween 20 and 5% BSA for 1 h at room temperature under agitation. The membrane was rinsed 3 times 10 min at room temperature under agitation with TBS, 0.1% Tween-20 (TBST) and then 1 h at room temperature with anti-phospho-Ser218/222-MEK1 (Merck-Millipore 07-461, 1/1000 dilution) antibody or anti-MEK1 (Merck-Millipore 07-641, 1/1000 dilution) diluted in TBS, 0.1% Tween 20 and 1% BSA. The membrane is then rinsed 3 times 10 min RT under agitation in TBST and incubated for 1 h with anti-rabbit secondary antibody, horseradish peroxidase conjugated (Jackson Immunoresearch #711-036-152) under agitation at room temperature. After three washes 10 min at room temperature in TBST, the detection of total or phosphorylated cofilin was performed using chemiluminescence kit ECL™ Plus (GE Healthcare RPN2132). For each concentration of compound, ratio between phosphorylated cofilin and total cofilin is determined. This ratio is then expressed as percentage of control ratio (i.e., ratio from DMSO treated cells). IC50 P-MEK/Total MEK is then determined.
(§3) Selectivity ratios are calculated by dividing the IC50 P-MEK/Total MEK value (μM) by the IC50 Phospho-Ser3-Cofilin/Total Cofilin value (μM).

The subject of experiment [2] is Phospho-Ser3-Cofilin/Total Cofilin. The experiment in a line: Western blot cofilin phosphorylation, MV4-11 (II.6). The note with it: MV4-11 cells. Format: cell-based. As to the method:
as §1
as §2, with “1 h RT under agitation.” for “1 h at room temperature under agitation.”, “temperature with anti-phospho-Ser3-cofilin (Cell Signaling Technology #3313, 1/1000 dilution)” for “temperature with anti-phospho-Ser218/222-MEK1 (Merck-Millipore 07-461, 1/1000 dilution)”, “antibody or anti-cofilin (Cell Signaling Technology #3312, 1/1000 dilution)” for “antibody or anti-MEK1 (Merck-Millipore 07-641, 1/1000 dilution)”, “10 min at room temperature under agitation” for “10 min RT under agitation”, “cells). IC50 Phospho-Ser3-Cofilin/Total Cofilin is then” for “cells). IC50 P-MEK/Total MEK is then”
For orientation: A western blot detects proteins with antibodies after separation by electrophoresis.

The subject of experiment [3] is P-MEK/Total MEK. Kind of experiment: Western blot MEK1 phosphorylation, MOLM-14. Format: cell-based. The note with it: for IC50: 2 h; for Selectivity ratio: IC50 P-MEK/Total MEK divided by IC50 Phospho-Ser3-Cofilin/Total Cofilin. As to the method:
MOLM-14 cell line was originally purchased from the American Type Culture Collection (ATCC). MOLM-14 cells are cultured in MEM alpha 10% (v/v) FBS supplemented with 100 U/mL^−1 penicillin, 0.1 mg·mL^−1 streptomycin (PAN Biotech P06-07100). Cells were maintained at 37° C. with 5% CO2.
as §2, §3

Another experiment concerns the target LIMK1(h) (Homo sapiens, UniProt P53667). The experiment in a line: LIMK1 kinase assay (Eurofins Panlabs, radiometric). Format: biochemical. Also on record: purchased Eurofins Panlabs Inc. (contract assay service).
The next experiment concerns MV4-11 cells. The experiment in a line: Cell proliferation assay (PrestoBlue), MV4-11. Format: cell-based. The conditions noted are these: Homo sapiens, 48 h. Here is the method: MV4-11 cell line was originally purchased from the American Type Culture Collection (ATCC). MV4-11 cells are cultured in RPMI 1640 10% (v/v) FBS supplemented with 100 U/mL^−1 penicillin, 0.1 mg·mL^−1 streptomycin (PAN Biotech P06-07100) and 2 mM Glutamine (Sigma-Aldrich 59202C). Cells were maintained at 37° C. with 5% CO2.
The assay was performed in 96 wells microplate (Greiner Bioone 655090). MV4-11 cells are seeded at 5,000 cells per well. Compounds (or equivalent amounts of DMSO) are then added and cells are allowed to grow for 48 h. Proliferation is evaluated using PrestoBlue assay according to manufacturer recommendations. Results are expressed as GI50 (Growth Inhibition 50%: concentration at which proliferation is inhibited of 50%) in comparison to DMSO controls.

Where [4] appears, read: 120 μM ATP, Table 8, read-out: IC50 B-Raf.
The mark [5] stands for this setting: IC50 B-Raf (nM) divided by IC50 LIMK1 (nM), Table 8.

Like-named read-outs stand apart in the source and are kept apart here.

Sequence of LIMK1(h) (P53667 whole entry): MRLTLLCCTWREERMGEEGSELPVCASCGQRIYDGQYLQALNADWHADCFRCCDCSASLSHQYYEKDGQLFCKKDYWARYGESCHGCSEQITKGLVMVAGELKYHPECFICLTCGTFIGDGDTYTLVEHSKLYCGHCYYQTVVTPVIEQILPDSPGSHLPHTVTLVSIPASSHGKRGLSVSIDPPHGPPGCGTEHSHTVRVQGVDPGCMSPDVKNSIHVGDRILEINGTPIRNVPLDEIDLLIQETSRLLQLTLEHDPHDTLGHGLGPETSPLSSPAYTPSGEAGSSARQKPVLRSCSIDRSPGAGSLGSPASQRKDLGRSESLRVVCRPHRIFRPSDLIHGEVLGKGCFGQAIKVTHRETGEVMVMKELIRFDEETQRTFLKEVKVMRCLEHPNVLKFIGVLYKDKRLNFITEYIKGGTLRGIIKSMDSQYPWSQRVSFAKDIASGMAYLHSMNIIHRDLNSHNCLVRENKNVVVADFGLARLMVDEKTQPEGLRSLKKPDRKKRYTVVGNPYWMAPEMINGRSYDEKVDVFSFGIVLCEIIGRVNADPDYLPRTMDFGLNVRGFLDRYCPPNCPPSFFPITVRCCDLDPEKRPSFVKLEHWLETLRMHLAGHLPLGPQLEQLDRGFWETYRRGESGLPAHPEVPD
Description for LIMK1(h): Compounds were tested in a LIMK1 assay performed by Eurofins Panlabs Inc. LIMK1 (h) is incubated with 8 mM MOPS pH 7.0, 0.2 mM EDTA, 0.6 mg/mL cofilin, 10 mM Magnesium acetate and [gamma-33P]-ATP. The reaction is initiated by the addition of the Mg/ATP mix. After incubation for 40 min at room temperature, the reaction is stopped by the addition of phosphoric acid to a concentration of 0.5%. […] IC50 LIMK1 is then determined.

For `O=S(=O)(Nc1cccc(-c2nc(CCO)sc2-c2ccnc(Nc3ccccc3)n2)c1F)c1c(F)cccc1F` [8 (Na)], the IC50 at B-Raf(h) (setting [4]) is 10 to 100 nM; with P-MEK/Total MEK [1] (MV4-11 cells, 2 h) it was above 1000 nM; in experiment [2] (2 h), below 200 nM; with P-MEK/Total MEK [3] (MOLM-14 cells, read-out: IC50 P-MEK/Total MEK), above 1000 nM; on LIMK1(h) (15 μM ATP, Table 8, read-out: IC50 LIMK1), below 10 nM. Also, the figures for the Selectivity ratio at B-Raf(h) (setting [5]), in the experiment with P-MEK/Total MEK [1] (MV4-11 cells) and in the experiment with P-MEK/Total MEK [3] (MOLM-14 cells) were 9, 6 and 30, respectively.
As a reminder, the GI50 is the concentration at which growth is held to half of that of the control. Lower therefore signals more potent growth inhibition. Turning to `CC(C)(C)c1nc(-c2cccc(NS(=O)(=O)c3c(F)cccc3F)c2F)c(-c2ccnc(Nc3ccccc3)n2)s1` [Compound 1, N-(3-(2-(tert-butyl)-5-(2-(phenylamino)pyrimidin-4-yl)thiazol-4-yl)-2-fluorophenyl)-2,6-difluorobenzenesulfonamide], at B-Raf(h) (IC50 B-Raf (nM) divided by IC50 LIMK1 (nM)), the “selectivity ratio for LIMK1 over B-Raf” value was “about 20”. Besides, the Selectivity ratio amounted to 8 at B-Raf(h) (setting [5]), 125 in the experiment with P-MEK/Total MEK [1] (MV4-11 cells) and 40 with P-MEK/Total MEK [3] (MOLM-14 cells). The IC50 against B-Raf(h) (IC50 B-Raf, 120 μM ATP, Table 8) was 10 to 100 nM; at B-Raf(h) (IC50 B-Raf, Table 5) it was 500 to 5000 nM; in the experiment on P-MEK/Total MEK [1] (Homo sapiens, MV4-11, 2 h), above 1000 nM; in experiment [2] (Homo sapiens, 2 h), below 200 nM; with P-MEK/Total MEK [3] (Homo sapiens, MOLM-14, 2 h, read-out: IC50 P-MEK/Total MEK, MOLM-14 cells), above 1000 nM; on LIMK1(h), 10 to 100 nM. Further, the IC50 at LIMK1(h) (read-out: IC50 LIMK1, Table 5, value reported in part II.1) lay in the range of 10 to 100 nM. In the experiment with MV4-11 cells, the 50% growth inhibitory concentration (GI50) was at most 1000 nM.
Take `O=S(=O)(Nc1cccc(-c2nc(CCO)sc2-c2ccnc(Nc3ccccc3)n2)c1F)c1c(F)cccc1F` [Compound 8, 2,6-difluoro-N-(2-fluoro-3-(2-(2-hydroxyethyl)-5-(2-(phenylamino)pyrimidin-4-yl)thiazol-4-yl)phenyl)benzenesulfonamide]: the IC50 with P-MEK/Total MEK [1] (Homo sapiens, MV4-11 cells, 2 h) was above 1000 nM; in experiment [2] (Homo sapiens, MV4-11, 2 h), 200 to 1000 nM; in the experiment with P-MEK/Total MEK [3] (Homo sapiens, MOLM-14 cells, read-out: IC50 P-MEK/Total MEK), above 1000 nM; on LIMK1(h) (15 μM ATP, Table 2, read-out: IC50 LIMK1) it was below 10 nM. Further, the Selectivity ratio in the experiment with P-MEK/Total MEK [1] (MV4-11 cells) is recorded as 4; in the experiment on P-MEK/Total MEK [3] (MOLM-14 cells), 100. The compound also displayed a GI50 with MV4-11 cells of at most 1000 nM.
For `CNC(=O)Cc1nc(-c2cccc(NS(=O)(=O)c3c(F)cccc3F)c2F)c(-c2ccnc(Nc3ccccc3)n2)s1` [Compound 9, 2-(4-(3-(2,6-difluorophenylsulfonamido)-2-fluorophenyl)-5-(2-(phenylamino)pyrimidin-4-yl)thiazol-2-yl)-N-methylacetamide], the IC50 was 10 to 100 nM on B-Raf(h) (setting [4]); above 1000 nM in the experiment on P-MEK/Total MEK [1] (Homo sapiens, MV4-11, 2 h); 200 to 1000 nM in experiment [2] (Homo sapiens, 2 h); above 1000 nM in the experiment on P-MEK/Total MEK [3] (read-out: IC50 P-MEK/Total MEK, MOLM-14 cells). In the experiment with MV4-11 cells, this compound showed a GI50 of 1000 to 5000 nM.
